Source: patent US20150065567A1, “1-PHENYLALKANECARBOXYLIC ACID DERIVATIVES FOR THE TREATMENT OF ALZHEIMER'S DISEASE AND MULTIPLE SCLEROSIS” (Chiesi Farmaceutici S.p.A., priority 2013, published 2015)
Read-outs that look alike come from different tables or passages of the source.

Assays:
[1] = test system: astrocyte-microglia co-culture (mixed glial cell culture) exposed to Aβ1-42; experiment: M1/M2 marker mRNA expression (RT-qPCR) in mixed glial culture exposed to Aβ1-42; assay type: cell-based, C57BL/6 mice
Protocol: C57BL/6 mice are purchased from Charles River. Mixed glial cell cultures were prepared from the brains of 1-3 day newborn mice. Briefly, after carefully removing meninges and large blood vessels, the brains were pooled and then dissociated by manual dispersion with a fire-polished Pasteur pipette. The cells were allowed to attach and grow at 37° C. in DMEM supplemented with 10% fetal bovine serum (FBS) (Euroclone), 4 mM L-glutamine, 200 U/ml penicillin/streptomycin in a water saturated atmosphere containing 5% CO2 for two week.
Soluble Aβ 1-42 were dissolved in sterile water to a final concentration of 2.5 mM, divided into aliquots and frozen. For experiments, mixed glial cells were incubated with soluble (not aggregated) Aβ 1-42, added at a concentration of 10 μM, in presence of CHF5074 (solved in 0.2% DMSO) or vehicle. Incubation was carried out for different times (from 1 to 8 days) in a Neurobasal/B27 medium. At the end of these periods, neuronal cell death by necrosis was evaluated by measuring the amount of lactate dehydrogenase (LDH) released into the culture medium using the CytoTox 96-non-radioactive cytotoxicity assay (Promega).
Total RNA was purified from cultured cells using the RNeasy Mini Kit for total RNA extractions (Qiagen). RNA was reverse transcribed using the Quantitect® Reverse Transcription Kit (Qiagen) with optimized mix of oligo-dT and random primers as primer and 1 μg of total RNA from mixed primary culture or co-culture. The reverse transcription reaction were performed in a total volume of 20 μL containing 5×RT-Buffer (that included dNTPs and Mg^2+), 50 U RT (Reverse trascriptase), 20 U RNase Inhibitor in RNAse-DNase free water for 10 min at 25° C., 2 h at 37° C. and 10 min at 85° C. Individual 25 μL SYBR Green real-time PCR reactions consisted of 2 μL of cDNA, 12.5 μL of 2× iQ™ SYBR Green Supermix (Bio-Rad), and 1.5 μL of each 10 μM optimized forward and reverse primers in 7.5 μL RNase-free water.
The PCR were performed on a Bio-Rad iCycler Detection System using a 3-stage program: 3 min at 50° C., 10 min at 95° C. and 40 cycles of 30 sec at 94° C. and 45 secat 60° C. For standardization of quantification, β-actin were amplified simultaneously. Sets of primer were designed to amplify by Real-time RT-PCR (q-RT-PCR) and RT-PCR genes expressed by classically activated (M1) microglia: • TNFα (Tumor Necrosis Factor α); • IL-1β (Interleukin1β); • iNOS (inducible Nitric Oxide Sinthase); and by alternatively activated (M2) microglia: • ARG1 (Arginase 1); • MRC1 (C-type mannose receptor 1); • TREM2 (Triggering Receptor Expressed on Myeloid cells-2). Primer3plus was used as primer designing tool and then checked the oligos (synthetized by Invitrogen) to verify melting temperatures and quality of the sequences.
Data were analyzed with Student's t-test for independent data. P<0.05 was considered as significant.
The effect of CHF5074 on the inflammatory response induced by Aβ was examined. Mixed astrocyte-microglia co-cultures were exposed to Aβ with or without CHF5074 at 3 μM concentration and examined for cytokine expression after 2 or 8 days. For classical activation of microglia, the expression of iNOS, beside TNFα and IL-1β was analyzed (see FIG. 2).
The alternative microglial activation markers (M2) in mixed glial cultures exposed to Aβ with and without CHF5074 for 2 days or 8 days were also investigated (see FIG. 3).

[2] = test system: Aβ42 secretion in human neuroglioma cells over-expressing the Swedish mutated APP (H4swe); conditions: read-out: IC50 for lowering Aβ42 secretion; cited from earlier work
COX-1 = COX-1 (Homo sapiens, UniProt P23219); conditions: concentrations up to 100 μM; cited from earlier work
COX-2 = biological target: T1, COX-2 (Homo sapiens, UniProt P35354); conditions: concentrations up to 300 μM; cited from earlier work
T1 sequence (P35354 18-604): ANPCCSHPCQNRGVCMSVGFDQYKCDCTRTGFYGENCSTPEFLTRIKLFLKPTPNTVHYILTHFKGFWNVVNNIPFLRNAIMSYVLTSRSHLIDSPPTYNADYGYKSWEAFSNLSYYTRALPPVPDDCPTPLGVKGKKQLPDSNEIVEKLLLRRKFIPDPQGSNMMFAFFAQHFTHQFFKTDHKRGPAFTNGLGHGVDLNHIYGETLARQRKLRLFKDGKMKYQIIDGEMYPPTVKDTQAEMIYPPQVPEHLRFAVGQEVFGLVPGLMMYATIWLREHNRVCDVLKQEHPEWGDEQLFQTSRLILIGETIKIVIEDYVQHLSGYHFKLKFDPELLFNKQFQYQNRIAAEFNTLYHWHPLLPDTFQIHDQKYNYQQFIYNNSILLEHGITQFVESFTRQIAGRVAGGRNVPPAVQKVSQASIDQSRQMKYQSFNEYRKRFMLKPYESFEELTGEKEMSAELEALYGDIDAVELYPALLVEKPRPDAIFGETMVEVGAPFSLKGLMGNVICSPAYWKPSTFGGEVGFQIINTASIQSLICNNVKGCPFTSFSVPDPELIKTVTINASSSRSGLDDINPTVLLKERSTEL

[3] = test system: Notch intracellular cleavage in human embryonic kidney 293swe cells; conditions: at 5 μM, HEK 293swe cells; cited from earlier work
NICD-responsive genes = conditions: at 100 μM; cited from earlier work
[4] = mice, cited from earlier work
[5] = rats; cited from earlier work
[6] = stated after the mice and rats data; cited from earlier work
[7] = guinea-pigs, cited from earlier work
[8] = dogs, cited from earlier work
[9] = test system: transgenic mouse models of AD; conditions: cited from earlier work
TNFα = conditions: healthy subjects, short-term administration; cited from earlier work
AD patients = conditions: cited from earlier work
dendritic spine density = conditions: mice; cited from earlier work

Chain of COX-1 (P23219 24-599): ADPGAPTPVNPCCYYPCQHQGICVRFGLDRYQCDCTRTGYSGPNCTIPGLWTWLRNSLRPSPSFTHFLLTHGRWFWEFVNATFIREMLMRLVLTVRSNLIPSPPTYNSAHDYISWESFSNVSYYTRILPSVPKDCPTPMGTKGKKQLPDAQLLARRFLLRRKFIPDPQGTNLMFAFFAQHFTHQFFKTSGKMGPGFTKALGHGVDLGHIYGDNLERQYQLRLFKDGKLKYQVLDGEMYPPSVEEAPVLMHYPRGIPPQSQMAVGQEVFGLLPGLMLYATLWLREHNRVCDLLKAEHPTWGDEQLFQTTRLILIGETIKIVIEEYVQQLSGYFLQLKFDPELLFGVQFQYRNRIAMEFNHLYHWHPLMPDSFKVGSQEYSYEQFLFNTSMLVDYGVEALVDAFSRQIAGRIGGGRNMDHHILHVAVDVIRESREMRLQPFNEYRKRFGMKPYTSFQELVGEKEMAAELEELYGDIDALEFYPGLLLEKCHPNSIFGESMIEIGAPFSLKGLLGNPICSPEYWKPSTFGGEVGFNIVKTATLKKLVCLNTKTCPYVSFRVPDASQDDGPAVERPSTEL

**Q.** For `O=C(O)C1(c2ccc(-c3ccc(Cl)c(Cl)c3)c(F)c2)CC1` [CHF 5074, 1-(3′,4′-dichloro-2-fluorobiphenyl-4-yl)cyclopropanecarboxylic acid], which ARG1 expression ([1]; 3 μM with 10 μM Aβ1-42, 2 days) is on record?
**A.** The ARG1 expression was “no change”.

**Q.** What about the “IL-1β mRNA expression” value ([1]; 3 μM with 10 μM Aβ1-42, 2 days) of the same compound?
**A.** Its value is “significantly decreased”.

**Q.** And the “TNFα mRNA expression” value ([1]; 3 μM with 10 μM Aβ1-42, 2 days)?
**A.** The value was “significantly decreased”.

**Q.** And the “iNOS mRNA expression” value ([1]; 3 μM with 10 μM Aβ1-42, 2 days)?
**A.** The value was “significantly decreased”.

**Q.** And the “increase of TREM2 mRNA over the basal value” ([1]; 3 μM with 10 μM Aβ1-42, 2 days)?
**A.** Its value is roughly 60%.

**Q.** And the “MRC1 mRNA level” value ([1]; 3 μM with 10 μM Aβ1-42, 2 days, Aβ alone reduced MRC1 to about 50% of basal)?
**A.** Its value is “near a three-fold increase”.

**Q.** And the “M2 mRNAs (MRC1, TREM2 and ARG1) expression” value ([1]; 3 μM with 10 μM Aβ1-42, 8 days)?
**A.** The value was “None of the tested M2 mRNAs (MRC1, TREM2 and ARG1) appeared modified”.

**Q.** What about the “TNFα, IL1β and iNOS (M1) expression levels” value ([1]; 3 μM with 10 μM Aβ1-42, 8 days) of the same compound?
**A.** The value was “does not modify”.

**Q.** What about the IC50 [2] of the same compound?
**A.** The IC50 was 3.6 µM.

**Q.** What about the “inhibitory activity on COX-1” value (COX-1) of the same compound?
**A.** Its value is “does not display inhibitory activity”.

**Q.** And the “inhibitory activity on COX-2” value (COX-2)?
**A.** Its value is “does not display inhibitory activity”.

**Q.** What about the “effects on Notch intracellular cleavage” value [3] of the same compound?
**A.** Its value is “no effects were observed”.

**Q.** What about the “expression profile of several NICD-responsive genes” value (NICD-responsive genes) of the same compound?
**A.** The value was “does not alter”.

**Q.** What about the oral absorption ([4]; oral) of the same compound?
**A.** The oral absorption was 74%.

**Q.** And the “plasma elimination t1/2” value [4]?
**A.** The value was 12 h.

**Q.** And the oral absorption [5]?
**A.** Its oral absorption is 50%.

**Q.** And the “brain levels as % of the corresponding plasma concentrations” value [6]?
**A.** Its value is 3-14%.

**Q.** And the “plasma elimination half-life t1/2” value ([7]; after oral administration)?
**A.** The value was “≈ 30 hours”.

**Q.** What about the brain penetration [7] of the same compound?
**A.** The brain penetration was 3-9%.

**Q.** And the oral absorption ([8]; oral route)?
**A.** The oral absorption was 80-100%.

**Q.** What about the “plasma elimination t1/2” value [8] of the same compound?
**A.** The value was “≈ 24 hours”.

**Q.** What about the tolerability ([9]; 60 mg/kg/day, prolonged treatment for 4-9 months) of the same compound?
**A.** The tolerability was “well tolerated”.

**Q.** What about the “neuropathological and behavioral activity” value ([9]; oral doses of 60 mg/kg/day) of the same compound?
**A.** The value was “active”.

**Q.** What about the “TNFα level in cerebrospinal fluid” value (TNFα) of the same compound?
**A.** Its value is “reduce TNFα level”.

**Q.** Which results are given for `CC(C)[C@H](O)C(=O)N[C@@H](C)C(=O)N[C@@H]1C(=O)N(C)CCc2ccccc21` [semagacestat]?
**A.** cognition and ability to complete activities of daily living versus placebo (AD patients; interim analysis of two Phase 3 trials): worsened over time to a statistically significantly higher rate; rate of skin cancer compared to placebo (AD patients; two 21-month Phase 3 trials, more than 2,600 AD patients): increased rate of skin cancer; dendritic spine density (dendritic spine density): decrease dendritic spine density
